Read-outs that look alike come from different tables or passages of the source.
Assays:
[1] = system: G9a (histone H3 lysine 9 methyltransferase); test: Methylation inhibition assay (AlphaLisa), G9a; type: biochemical; conditions: 50 µM; for inhibitory activity against G9a: Figure 3; for Relative selectivity index of DNMT1 vs G9a: 1 - selected enzyme inhibition/DNMT1 inhibition
Experimental: (§1) All the compounds were first screened using an ELISA EpiQuik DNA methyltransferase (DNMT) activity/inhibitor assay kit (Epigentek). To measure the effects of the compounds on human DNMT1 activity, 200 nM purified DNMT1 was incubated with 50 µM and 100 µM of the different compounds and S-adenosylmethionine in the DNMT assay buffer in the assay plate at 37 °C for 2 h[36]. Next, every sample was incubated with the capture and detection antibody, followed by incubation with developer solution for 10 min at room temperature. The absorbance was measured at 450 nm using a POLARstar Omega microplate reader (BMG). S-Adenosylhomocysteine (AdoHcy) was used as a positive control. Methylation inhibition assays for EZH2, LSD, and G9a were performed in modified Tris, pH 9.0, buffer using AlphaLisa technology. An amount of 10 µL of the reaction system contained a corresponding concentration of SAM (Sigma) (EZH2 50 µM, LSD 50 µM, and G9a 50 µM), which was the Km value in each enzymatic reaction, plus 100 nM biotinylated peptide H3 (1–21) (synthesis by GLChina) and the relevant enzyme concentration (0.03 nM EZH2, 0.03 nM LSD, and 0.03 nM G9a). The proteins were preincubated with various compound concentrations for 15 min at room temperature before the substrate and SAM were added. After 60 min of incubation at room temperature, acceptor and donor AlphaLisa beads were added according to the manufacturer’s recommendations. The signals were read in Alpha mode with an EnSpire multimode plate reader (PerkinElmer). IC50 values were derived by fitting the data for the inhibition percentage to a dose-response curve by non-linear regression in GraphPad Prism 5.0[20].
(§2) In addition to DNMT1, there are many other methyltransferases that can bind with S-adenosyl-L-methionine (SAM) to facilitate transmethylation reactions[24]^,[25]. To investigate the selectivity of these potent compounds for DNMT1, we then evaluated the inhibitory activities against DNMT1 and other important methyltransferases at the concentration of 50 µM, including DNMT3A/3L, DNMT3B/3L, and other SAM-dependent enzymes[1]^,[2]^,[26], such as EZH2[27], LSD1[28], G9a (histone H3 lysine 9 methyltransferase)[29].
(§3) 493 Relative selectivity index
(§4) 494 Relative selectivity index of DNMT1 is calculated by formula: DNMT1-selectivity
(§5) 495 index =1 - selected enzyme inhibition/DNMT1 inhibition. The closer
(§6) 496 that this value is to 1 or even more than 1, the better DNMT1-selectivity the of the
(§7) 498 Table S1. Relative selectivity index of DNMT1
Cpd. […]

DNMT3A/3L = test: Methyltransferase enzymatic selectivity profiling, DNMT3A/3L; type: biochemical; conditions: 1 - selected enzyme inhibition/DNMT1 inhibition; 50 µM
Experimental: as §2
(§8) Here, the selectivity of non-nucleoside DNMT1 inhibitors is somewhat predictable because other methyltransferases mentioned above catalyse different substrates and share very low homology with DNMT1, even in their catalytic domain[30–32]. Subsequently, the screened compounds were evaluated in a dose-dependent assay against HCT116 (human colon cancer cell line) and A549 (human lung carcinoma cell line).
as §3, §4, §5, §6, §7
Cpd. […]

LSD1 = test: Methylation inhibition assay (AlphaLisa), LSD1; type: biochemical; conditions: 1 - selected enzyme inhibition/DNMT1 inhibition; 50 µM
Experimental: as §1, §2, §3, §4, §5, §6, §7
Cpd. […]

human DNMT1 = test: ELISA EpiQuik DNA methyltransferase (DNMT) activity/inhibitor assay; type: biochemical; conditions: 200 nM purified DNMT1, EpiQuik kit; for Inh% at 50 μM: 50 μM compound; for Inh% at 100 μM: 100 μM compound
Experimental: as §1
DNMT1 inhibition test was performed on 30 candidates to verify their biochemical activities. The EpiQuik DNA methyl-transferase (DNMT) activity/inhibitor assay kit (Epigentek) was used to identify the activity of synthetic compounds.

DNMT3B/3L = test: Methyltransferase enzymatic selectivity profiling, DNMT3B/3L; type: biochemical; conditions: 50 µM; for Relative selectivity index of DNMT1 vs DNMT 3B/3L: 1 - selected enzyme inhibition/DNMT1 inhibition
Experimental: as §2, §8, §3, §4, §5, §6, §7
Cpd. […]

[2] = system: A549 (human lung cancer cells); test: MTT assay, A549; type: cell-based
Experimental: (§9) The human lung cancer cells (A549) and human colon cancer cells (HCT116) were cultured in an RPMI-1640 medium containing 10% FBS, 100 U/mL streptomycin, and 100 U/mL penicillin at 37 °C in a humidified atmosphere with 5% CO2. All compounds were dissolved in DMSO and stock solutions were stored at −20 °C. Reagents were freshly diluted to the marked concentrations with a culture medium before use. DMSO concentration in experimental conditions never exceeded 0.1% (v/v). All cell lines were provided by the cell laboratory, School of pharmaceutical sciences, Guangzhou Medical University.
(§10) Cell viability was detected using an MTT assay kit. Cells were seeded into 96-well plates at a density of ∼1.0 × 10^4/well. 24 h later, sextuplicate wells were treated with media and new compounds at a fixed concentration (50 µM). After 24, 48, and 72 h, the drug-containing medium was replaced by a 100 µL fresh medium with 5 mg/mL MTT solution. After 4 h of incubation, the medium with MTT was removed, and 100 µL of DMSO was added to each well. The plates were gently agitated until the purple formazan crystals were dissolved, and the OD490 was determined using a […] (Olympus BX53, Japan). The data were calculated and plotted as the percent viability compared to the control.

DNMT1 = DNMT1 (Homo sapiens, UniProt P26358); test: H3-labelled radioactive methylation assay; type: biochemical; conditions: H3-labeled radioactive methylation assay; 40 nM DNMT1
Experimental: The DNMT1 radioactive methylation inhibition assays were performed in 30 µL reactions containing 0.1 µM adenosyl-L-methionine S-[methyl-^3H] (^3H-SAM, ^15 Ci/mmol, PerkinElmer), 0.25 µg/mL poly (dI-dC)·poly (dI-dC) (Sigma), 40 nM DNMT1 in 50 mM Tris-HCl, pH 8.0, 1 mM DTT, 5% glycerol, and 100 µg/mL BSA. The proteins were preincubated with a range of compound concentrations for 15 min at room temperature before adding the substrate and [^3H] SAM. After 60 min of incubation at 37 °C, the reaction systems were transferred to a MultiScreen HTS filter plate (Millipore), and the plate was washed 3 times with doubly distilled H2O via a vacuum. The radioactivity was determined by liquid scintillation counting (MicroBeta, PerkinElmer). IC50 values were derived by fitting the data for the inhibition percentage to a dose-response curve by non-linear regression in GraphPad Prism 5.0.
To quantitatively analyse DNMT1 inhibitory effect, the H^3-labelled radioactive methylation assay was conducted to measure the methyltransferase activity of DNMT1 at a range of concentrations for these compounds.

[3] = system: HCT116 (human colon cancer cells); test: MTT assay, HCT116; type: cell-based
Experimental: as §9, §10

EZH2 = test: Methylation inhibition assay (AlphaLisa), EZH2; type: biochemical; conditions: 50 µM; for inhibitory activity against EZH2: Figure 3; for Relative selectivity index of DNMT1 vs EZH2: 1 - selected enzyme inhibition/DNMT1 inhibition
Experimental: as §1, §2, §3, §4, §5, §6, §7
Cpd. […]

PK study in SD rats = type: in vivo; conditions: rat, plasma, SD male rats; for AUC(0-t) / Tmax / half-life: mean ± SD (n = 3); for bioavailability: p.o. 10 mg/kg vs i.v. 2 mg/kg, F = (AUC p.o. × Dose i.v.)/(AUC i.v. × Dose p.o.) × 100%
Experimental: In vivo pharmacokinetic properties of WK-22, WK-23, WK-27, and DC_517 were performed by Medicilon Company, Shanghai, China. SPF-grade SD male rats (8 groups, n = 3 rats per group) with a body weight of 230–260 g were purchased from Shanghai SIPPR-BK LAB Animal Ltd., Shanghai, China, and used for the pharmacokinetic analysis of the tested compounds. All animals were deprived of food overnight after the cannulation surgery. Subsequently, the tested compounds WK-23 and DC_517 were dissolved/suspended in 5% DMSO, 10% Solutol, and 85% water, and the tested compounds WK-22 and WK-27 were dissolved/suspended in 5% DMSO, 40% PEG400, and 55% saline for intravenous administration (i.v.) and oral administration (p.o.), respectively. A final dosage of 2.0 and 10.0 mg/kg rat of the formulated compounds was administered for i.v. and p.o. purposes, respectively, and the blood samples were taken at various time points during a 24 h period. At different time points, blood samples were collected from the femoral vein. The plasma samples were obtained after centrifugation (6800 g, 6 min, 2–8 °C) and stored at −80 °C until the assay. The AUC (area under concentration-time curve) was calculated through the trapezoidal rule with extrapolation to time infinity. The concentration of the compounds in the blood was analysed by LC-MS/MS (Shimadzu liquid chromatographic system and SCIEX Triple Quad 5500+ mass spectrometer, Applied Biosystems, Ontario, Canada). The Tmax, T1/2, and Cmax value was obtained through visual inspection of the plasma concentration-time curve. The Vss value was generated from DAS 3.2.8 software. The F value of WK-23 was calculated with the formula: F = (AUC p.o. × Dose i.v.)/(AUC i.v. × Dose p.o.) × 100%.

Chain of DNMT1 (P26358 whole entry): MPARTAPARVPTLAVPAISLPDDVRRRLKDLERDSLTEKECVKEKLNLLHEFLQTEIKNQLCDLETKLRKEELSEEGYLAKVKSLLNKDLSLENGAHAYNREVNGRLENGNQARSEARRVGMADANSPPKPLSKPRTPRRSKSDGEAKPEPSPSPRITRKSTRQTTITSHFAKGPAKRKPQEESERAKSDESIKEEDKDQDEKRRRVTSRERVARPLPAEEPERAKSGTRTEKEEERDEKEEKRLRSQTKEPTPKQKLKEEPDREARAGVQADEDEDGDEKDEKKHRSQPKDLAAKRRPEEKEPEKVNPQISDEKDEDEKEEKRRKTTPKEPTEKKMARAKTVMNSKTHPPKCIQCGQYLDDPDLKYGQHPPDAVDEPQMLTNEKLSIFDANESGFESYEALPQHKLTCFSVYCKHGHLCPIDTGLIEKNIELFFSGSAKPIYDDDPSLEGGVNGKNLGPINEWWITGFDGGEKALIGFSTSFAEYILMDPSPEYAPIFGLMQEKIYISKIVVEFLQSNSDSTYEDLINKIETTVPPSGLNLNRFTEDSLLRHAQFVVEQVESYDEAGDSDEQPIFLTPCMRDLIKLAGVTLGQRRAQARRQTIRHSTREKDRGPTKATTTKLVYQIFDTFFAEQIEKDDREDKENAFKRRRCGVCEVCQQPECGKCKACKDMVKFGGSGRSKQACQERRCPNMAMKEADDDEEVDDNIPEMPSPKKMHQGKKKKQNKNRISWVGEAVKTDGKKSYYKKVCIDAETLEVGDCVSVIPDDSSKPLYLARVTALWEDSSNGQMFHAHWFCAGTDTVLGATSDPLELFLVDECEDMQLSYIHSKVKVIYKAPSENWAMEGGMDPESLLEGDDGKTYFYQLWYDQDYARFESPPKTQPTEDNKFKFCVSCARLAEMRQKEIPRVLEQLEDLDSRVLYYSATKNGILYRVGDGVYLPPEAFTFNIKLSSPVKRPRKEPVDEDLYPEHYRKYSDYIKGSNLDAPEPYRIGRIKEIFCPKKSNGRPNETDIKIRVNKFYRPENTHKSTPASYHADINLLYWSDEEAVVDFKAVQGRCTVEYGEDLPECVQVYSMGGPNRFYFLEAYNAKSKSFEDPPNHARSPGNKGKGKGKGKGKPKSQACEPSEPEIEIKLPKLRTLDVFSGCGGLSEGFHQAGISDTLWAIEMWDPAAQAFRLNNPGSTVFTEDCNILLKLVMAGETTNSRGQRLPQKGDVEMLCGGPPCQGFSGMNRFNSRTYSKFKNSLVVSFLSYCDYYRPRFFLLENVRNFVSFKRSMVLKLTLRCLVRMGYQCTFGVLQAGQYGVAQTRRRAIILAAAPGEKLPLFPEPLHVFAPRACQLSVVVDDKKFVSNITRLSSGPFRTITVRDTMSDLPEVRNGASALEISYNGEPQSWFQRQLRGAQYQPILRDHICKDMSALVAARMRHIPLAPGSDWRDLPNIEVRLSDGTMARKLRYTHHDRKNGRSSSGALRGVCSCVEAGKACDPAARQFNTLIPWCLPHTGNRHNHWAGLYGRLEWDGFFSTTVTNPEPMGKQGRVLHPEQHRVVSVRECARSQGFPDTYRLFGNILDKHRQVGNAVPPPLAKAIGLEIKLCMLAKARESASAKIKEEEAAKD

Row | inhibitory activity against G9a [1] | Relative selectivity index of DNMT1 vs G9a [1] | Relative selectivity index of DNMT1 vs DNMT 3A/3L (DNMT3A/3L) | Inh% at 50 μM (human DNMT1) | Inh% at 100 μM (human DNMT1) | melting point | Relative selectivity index of DNMT1 vs DNMT 3B/3L (DNMT3B/3L) | IC50 (DNMT1) | Structure (SMILES) | Relative selectivity index of DNMT1 vs LSD1 (LSD1) | inhibitory activity against EZH2 (EZH2) | Relative selectivity index of DNMT1 vs EZH2 (EZH2) | also measured
1 | hardly any inhibitory activities | 0.84 | 0.49 | 82% | 100% | 137 to 139 °C | 1.15 | 28 µM | OC(CNCCc1c[nH]c2ccccc12)Cn1c2ccccc2c2cc(F)ccc21 (centres unmarked) [WK-1, 1-((2-(1H-indol-3-yl)ethyl)amino)-3-(3-fluoro-9H-carbazol-9-yl)propan-2-ol] | 0.18 | hardly any inhibitory activities | 0.93 | inhibitory activity against DNMT3B/3L (DNMT3B/3L; Figure 3): hardly any inhibitory activities; inhibition at 50 µM ([2]; 24 h, read-out: Inh % at 50 μM, A549, 24 h): 88.2%; inhibition at 50 µM ([2]; 48 h, read-out: Inh % at 50 μM, A549, 48 h): 78.6%; inhibition at 50 µM ([2]; 72 h, read-out: Inh % at 50 μM, A549, 72 h): 87.6%; inhibition at 50 µM ([3]; HCT-116, 24 h, read-out: Inh % at 50 μM, HCT116, 24 h): 90.9%; inhibition at 50 µM ([3]; HCT-116, 48 h, read-out: Inh % at 50 μM, HCT116, 48 h): 88%; inhibition at 50 µM ([3]; HCT-116, 72 h, read-out: Inh % at 50 μM, HCT116, 72 h): 94.9%
2 |  |  |  | 79% | 84% | 114 to 116 °C |  | 6 µM | OC(CNCCc1ccc(F)cc1)Cn1c2ccc(F)cc2c2cc(F)ccc21 (centres unmarked) [WK-14, 1-(3,6-Difluoro-9H-carbazol-9-yl)-3-((4-fluorophenethyl)amino)propan-2-ol] |  |  |  | 
3 |  |  |  | 75% | 82% | 91 to 93 °C |  | 7.7 µM | OC(CNCCc1ccccc1)Cn1c2ccc(F)cc2c2cc(F)ccc21 (centres unmarked) [WK-15, 1-(3,6-Difluoro-9H-carbazol-9-yl)-3-(phenethylamino)propan-2-ol] |  |  |  | 
4 |  |  |  | 70% | 87% | 130 to 132 °C |  | 10 µM | CC(O)CNCC(O)Cn1c2ccc(F)cc2c2cc(F)ccc21 (centres unmarked) [WK-18, 1-(3,6-Difluoro-9H-carbazol-9-yl)-3-((2-hydroxypropyl)amino)propan-2-ol] |  |  |  | 
5 |  | 0.99 | 0.94 | 100% | 100% | 183 to 185 °C | 1.44 |  | CC(C)(C)NCC(O)COC(Cn1c2ccccc2c2cc(F)ccc21)Cn1c2ccccc2c2cc(F)ccc21 (centres unmarked) [WK-25, 1-((1,3-Bis(3-fluoro-9H-carbazol-9-yl)propan-2-yl)oxy)-3-(tert-butylamino)propan-2-ol] | 0.02 |  | 0.89 | 
6 | nearly no inhibitory activities | 0.97 | 0.03 | 100% | 100% | 150 to 152 °C | 0.03 |  | OC[C@H]1CN(CC(O)COC(Cn2c3ccccc3c3cc(F)ccc32)Cn2c3ccc(F)cc3c3cc(F)ccc32)CCN1 (stereo partly drawn) [WK-27, 1-((1-(3,6-Difluoro-9H-carbazol-9-yl)-3-(3-fluoro-9H-carbazol-9-yl)propan-2-yl)oxy)-3-((R)-3-(hydroxymethyl)piperazin-1-yl)propan-2-ol] | 0.05 | nearly no inhibitory activities | 0.9 | AUC(0-t) (PK study in SD rats; iv, i.v. (2 mg/kg)): 427 ± 60 ng·h/mL; Tmax (PK study in SD rats; iv, i.v. (2 mg/kg)): 0.1 h; half-life (PK study in SD rats; iv, i.v. (2 mg/kg)): 11.5 ± 1.2 h; bioavailability (PK study in SD rats; oral): 1.8%; bioavailability (PK study in SD rats; po): 1.8 ± 1.9%; AUC(0-t) (PK study in SD rats; po, p.o. (10 mg/kg)): 28.5 ± 40 ng·h/mL; Tmax (PK study in SD rats; po, p.o. (10 mg/kg)): 2.7 ± 1.2 h; half-life (PK study in SD rats; po, p.o. (10 mg/kg)): 3.9 ± 2.5 h

Source: PMC9186373, “Design, synthesis, and biological evaluation of novel carbazole derivatives as potent DNMT1 inhibitors with reasonable PK properties” (Journal of Enzyme Inhibition and Medicinal Chemistry, 2022)
